Test [1] has as its target SMARCA2 (Homo sapiens, UniProt P51531). The test is described as follows: HiBit assay in engineered HT1080 CRISPR knock-in cell, 6 hrs (B series), SMARCA2. To be noted: 6 hrs incubation; for DC50: HT1080 CRISPR knock-in cells, read-out: SMARC A2 HT1080 HiBit DC50; for Dmax: HT-1080, HT1080 CRISPR knock-in cells, read-out: SMARC A2 HT1080 HiBit Dmax (%). It counts as cell-based. In short, it runs like this:
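HT1080 CRISPR knock-in cells carrying HiBiT-tagged SMARCA2 seeded onto compound (0.1% DMSO) at 2000 cells/well. Incubated 6 h at 37 °C, 5% CO2, then lysed with Nano-Glo HiBiT lytic reagent containing LgBiT, and luminescence read.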

Test [2] concerns the target SMARCA4 (Homo sapiens, UniProt P51532). The test is described as follows: HiBit assay in engineered HT1080 CRISPR knock-in cell, 6 hrs (B series), SMARCA4. It counts as cell-based. To be noted: 6 hrs incubation; for DC50: HT1080 CRISPR knock-in cells, read-out: SMARC A4 HT1080 HiBit DC50; for Dmax: HT-1080, HT1080 CRISPR knock-in cells, read-out: SMARC A4 HT1080 HiBit Dmax(%). In short, it runs like this: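 Using a 6 hr treatment window at 37° C and 5% CO2, tagged HT1080 knock-in cells were exposed to test compounds with DMSO vehicle held at 0.1%. Signal came from lytic LgBiT/substrate reagent added after incubation, with control wells lacking LgBiT, and was read as luminescence.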

Chain of SMARCA4 (P51532 whole entry): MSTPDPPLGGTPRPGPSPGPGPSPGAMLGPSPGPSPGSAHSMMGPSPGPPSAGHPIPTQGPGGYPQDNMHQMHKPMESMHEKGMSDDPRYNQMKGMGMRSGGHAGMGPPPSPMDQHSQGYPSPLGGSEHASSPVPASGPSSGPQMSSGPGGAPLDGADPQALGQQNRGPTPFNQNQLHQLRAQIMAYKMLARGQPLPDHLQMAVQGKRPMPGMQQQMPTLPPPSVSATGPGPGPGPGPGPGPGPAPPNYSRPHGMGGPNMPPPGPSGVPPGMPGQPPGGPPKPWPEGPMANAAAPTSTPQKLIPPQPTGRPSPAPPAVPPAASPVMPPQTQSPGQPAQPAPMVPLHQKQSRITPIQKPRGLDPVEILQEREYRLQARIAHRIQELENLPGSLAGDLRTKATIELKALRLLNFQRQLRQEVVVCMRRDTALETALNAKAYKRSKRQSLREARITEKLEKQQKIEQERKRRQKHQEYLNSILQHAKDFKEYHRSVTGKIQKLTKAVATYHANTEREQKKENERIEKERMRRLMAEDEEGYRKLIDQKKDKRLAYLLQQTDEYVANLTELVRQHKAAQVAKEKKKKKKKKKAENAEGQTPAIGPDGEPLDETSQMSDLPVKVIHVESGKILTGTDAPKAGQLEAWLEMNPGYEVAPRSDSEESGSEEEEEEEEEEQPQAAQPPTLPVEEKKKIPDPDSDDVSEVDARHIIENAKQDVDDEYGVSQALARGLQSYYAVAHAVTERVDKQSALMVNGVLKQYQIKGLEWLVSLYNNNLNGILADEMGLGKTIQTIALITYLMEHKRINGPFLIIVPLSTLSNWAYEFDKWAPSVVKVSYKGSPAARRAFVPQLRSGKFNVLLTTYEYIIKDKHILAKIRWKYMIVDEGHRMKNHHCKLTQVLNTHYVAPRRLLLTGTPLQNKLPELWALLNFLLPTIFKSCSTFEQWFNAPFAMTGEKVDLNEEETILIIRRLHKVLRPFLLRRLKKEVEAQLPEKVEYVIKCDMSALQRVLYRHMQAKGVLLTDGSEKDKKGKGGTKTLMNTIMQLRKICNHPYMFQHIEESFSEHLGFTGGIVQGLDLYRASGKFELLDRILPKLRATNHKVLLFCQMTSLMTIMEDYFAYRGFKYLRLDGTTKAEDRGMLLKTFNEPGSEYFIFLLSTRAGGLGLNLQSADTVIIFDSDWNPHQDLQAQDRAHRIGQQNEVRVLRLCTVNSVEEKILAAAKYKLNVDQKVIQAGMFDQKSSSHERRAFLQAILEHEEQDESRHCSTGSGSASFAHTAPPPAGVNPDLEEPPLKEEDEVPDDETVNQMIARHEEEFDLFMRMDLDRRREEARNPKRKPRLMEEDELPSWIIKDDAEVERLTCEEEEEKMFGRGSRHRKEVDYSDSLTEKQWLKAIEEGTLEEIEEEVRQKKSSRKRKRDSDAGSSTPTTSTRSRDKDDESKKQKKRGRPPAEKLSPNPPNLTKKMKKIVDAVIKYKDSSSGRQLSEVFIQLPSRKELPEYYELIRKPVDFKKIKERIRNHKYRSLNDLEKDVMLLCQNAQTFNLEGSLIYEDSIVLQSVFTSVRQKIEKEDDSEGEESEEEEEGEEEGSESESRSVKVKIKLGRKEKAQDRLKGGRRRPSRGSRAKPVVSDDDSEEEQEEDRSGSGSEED
Chain of SMARCA2 (P51531 whole entry): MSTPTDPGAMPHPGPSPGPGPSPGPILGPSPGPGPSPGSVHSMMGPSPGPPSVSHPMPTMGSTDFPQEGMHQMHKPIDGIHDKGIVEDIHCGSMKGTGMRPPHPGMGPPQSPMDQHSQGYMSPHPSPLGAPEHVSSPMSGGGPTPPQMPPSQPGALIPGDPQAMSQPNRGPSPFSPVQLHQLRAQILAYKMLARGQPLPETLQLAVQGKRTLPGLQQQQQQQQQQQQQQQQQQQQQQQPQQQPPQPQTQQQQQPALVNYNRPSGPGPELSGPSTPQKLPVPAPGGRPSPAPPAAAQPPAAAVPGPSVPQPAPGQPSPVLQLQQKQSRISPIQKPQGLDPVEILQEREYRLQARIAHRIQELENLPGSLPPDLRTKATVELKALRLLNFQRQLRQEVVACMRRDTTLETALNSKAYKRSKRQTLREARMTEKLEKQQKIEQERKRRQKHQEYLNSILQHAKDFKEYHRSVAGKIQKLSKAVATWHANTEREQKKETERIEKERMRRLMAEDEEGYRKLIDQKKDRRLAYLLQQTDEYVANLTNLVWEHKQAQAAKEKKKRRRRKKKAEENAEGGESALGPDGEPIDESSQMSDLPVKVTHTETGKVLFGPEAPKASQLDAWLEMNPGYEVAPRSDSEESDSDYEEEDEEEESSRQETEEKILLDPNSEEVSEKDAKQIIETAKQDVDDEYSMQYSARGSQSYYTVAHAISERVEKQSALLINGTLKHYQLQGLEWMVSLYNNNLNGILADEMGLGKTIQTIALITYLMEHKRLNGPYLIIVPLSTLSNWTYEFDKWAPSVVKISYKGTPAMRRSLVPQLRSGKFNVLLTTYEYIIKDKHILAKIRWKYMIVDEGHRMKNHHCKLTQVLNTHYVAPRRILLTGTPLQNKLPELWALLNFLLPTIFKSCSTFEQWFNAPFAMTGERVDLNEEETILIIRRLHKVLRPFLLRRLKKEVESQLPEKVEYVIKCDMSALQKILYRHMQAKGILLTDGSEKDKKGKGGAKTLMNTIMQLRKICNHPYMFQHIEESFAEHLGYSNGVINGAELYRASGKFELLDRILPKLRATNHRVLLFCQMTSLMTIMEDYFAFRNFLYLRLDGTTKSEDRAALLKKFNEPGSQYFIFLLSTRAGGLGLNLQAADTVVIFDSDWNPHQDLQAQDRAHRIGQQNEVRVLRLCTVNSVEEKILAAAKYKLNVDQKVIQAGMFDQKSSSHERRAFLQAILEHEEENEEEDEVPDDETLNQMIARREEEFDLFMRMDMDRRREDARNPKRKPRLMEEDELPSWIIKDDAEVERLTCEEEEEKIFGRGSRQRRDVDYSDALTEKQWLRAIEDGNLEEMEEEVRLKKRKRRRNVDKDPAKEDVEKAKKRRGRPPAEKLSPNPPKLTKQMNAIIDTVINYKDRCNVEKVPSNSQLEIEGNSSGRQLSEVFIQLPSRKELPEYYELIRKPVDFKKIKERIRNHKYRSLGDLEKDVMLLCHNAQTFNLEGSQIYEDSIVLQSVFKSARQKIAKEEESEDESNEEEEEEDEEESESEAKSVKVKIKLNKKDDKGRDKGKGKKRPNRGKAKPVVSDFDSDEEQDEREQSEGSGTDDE

`Cc1cc(C(C(=O)N2C[C@H](O)C[C@H]2C(=O)N[C@@H](CN2CCC(CN3CCC(c4cccc5c4C(C)(C)c4nc(=O)c6c(Cl)cccc6n4-5)CC3)CC2)c2ccc(-c3scnc3C)cc2)C(C)C)on1` (stereo partly drawn) [Compound B139, (2S,4R)—N—((R)-2-(4-((4-(4-chloro-7,7-dimethyl-5-oxo-5,7-dihydroindolo[1,2-a]quinazolin-8-yl)piperidin-1-yl)methyl)piperidin-1-yl)-1-(4-(4-methylthiazol-5-yl)phenyl)ethyl)-4-hydroxy-1-(3-methyl-2-(3-methylisoxazol-5-yl)butanoyl)pyrrolidine-2-carboxamide]: in test [1], the DC50 is under 100 nM and the Dmax was over 90%. Besides, in test [2], the DC50 was under 100 nM and the Dmax was in the range of 70 to 90%.
Turning to `Cc1ncsc1-c1ccc([C@H](C)NC(=O)[C@@H]2C[C@@H](O)CN2C(=O)[C@@H](NC(=O)CCCCn2cc(-c3ccc4c(c3)C(C)(C)c3nc(=O)c5c(Cl)cccc5n3-4)cn2)C(C)(C)C)cc1` [Compound B87, (2S,4R)-1-((S)-2-(5-(4-(4-chloro-7,7-dimethyl-5-oxo-5,7-dihydroindolo[1,2-a]quinazolin-9-yl)-1H-pyrazol-1-yl)pentanamido)-3,3-dimethylbutanoyl)-4-hydroxy-N-((S)-1-(4-(4-methylthiazol-5-yl)phenyl)ethyl)pyrrolidine-2-carboxamide], the DC50 in test [1] was 100 to 500 nM; in test [2], over 1000 nM. The Dmax in test [1] is 50 to 69%; in test [2], under 50%.
In the case of `C[C@H](NC(=O)[C@@H]1C[C@@H](O)CN1C(=O)[C@@H](n1cc(C2CCC(CN3CCC(c4ccc5c(c4)-n4c(nc(=O)c6c(Cl)cccc64)C54CCCCC4)CC3)CC2)nn1)C(C)(C)C)c1ccc(-c2scnc2CCCN2CCOCC2)cc1` (stereo partly drawn) [Compound B108, (2S,4R)-1-((S)-2-(4-((11,4S)-4-((4-(4′-chloro-5′-oxo-5′H-spiro[cyclohexane-1,7′-indolo[1,2-a]quinazolin]-10′-yl)piperidin-1-yl)methyl)cyclohexyl)-1H-1,2,3-triazol-1-yl)-3,3-dimethylbutanoyl)-4-hydroxy-N-((S)-1-(4-(4-(3-morpholinopropyl)thiazol-5-yl)phenyl)ethyl)pyrrolidine-2-carboxamide], in test [1], the DC50 fell in the range of 100 to 500 nM and the Dmax was over 90%. Further, in test [2], the DC50 is 100 to 500 nM and the Dmax fell in the range of 50 to 69%.
As for `C[C@H](NC(=O)[C@@H]1C[C@@H](O)CN1C(=O)[C@@H](n1cc([C@H]2CC[C@H](CN3CCN(c4ccc5c(c4)-n4c(nc(=O)c6c(Cl)cccc64)C5(C)C)CC3)CC2)nn1)C(C)(C)C)c1ccc(-c2ccn[nH]2)cc1` [Compound B127, (2S,4R)-N-((S)-1-(4-(1H-pyrazol-5-yl)phenyl)ethyl)-1-((S)-2-(4-((1r,4S)-4-((4-(4-chloro-7,7-dimethyl-5-oxo-5,7-dihydroindolo[1,2-a]quinazolin-10-yl)piperazin-1-yl)methyl)cyclohexyl)-1H-1,2,3-triazol-1-yl)-3,3-dimethylbutanoyl)-4-hydroxypyrrolidine-2-carboxamide], the DC50 in test [1] and in test [2] was under 100 nM each time. Further, the Dmax in test [1] was over 90%; in test [2] it was 70 to 90%.
For `Cc1ncsc1-c1ccc([C@H](C)NC(=O)[C@@H]2C[C@@H](O)CN2C(=O)[C@@H](NC(=O)CCn2cc(-c3ccc4c(c3)C(C)(C)c3nc(=O)c5c(Cl)cccc5n3-4)cn2)C(C)(C)C)cc1` [Compound B101, (2S,4R)-1-((S)-2-(3-(4-(4-chloro-7,7-dimethyl-5-oxo-5,7-dihydroindolo[1,2-a]quinazolin-9-yl)-1H-pyrazol-1-yl)propanamido)-3,3-dimethylbutanoyl)-4-hydroxy-N-((S)-1-(4-(4-methylthiazol-5-yl)phenyl)ethyl)pyrrolidine-2-carboxamide], in test [1], the DC50 was over 1000 nM and the Dmax was under 50%. Besides, in test [2], the DC50 was over 1000 nM and the Dmax was under 50%.
`Cc1ncsc1-c1ccc([C@H](C)NC(=O)[C@@H]2C[C@@H](O)CN2C(=O)[C@@H](c2cc(OCCCN3CCC(c4ccc5c(c4)-n4c(nc(=O)c6c(Cl)cccc64)C5(C)C)CC3)no2)C(C)C)cc1` [Compound B26, (2S,4R)-1-((R)-2-(3-(3-(4-(4-chloro-7,7-dimethyl-5-oxo-5,7-dihydroindolo[1,2-a]quinazolin-10-yl)piperidin-1-yl)propoxy)isoxazol-5-yl)-3-methylbutanoyl)-4-hydroxy-N-((S)-1-(4-(4-methylthiazol-5-yl)phenyl)ethyl)pyrrolidine-2-carboxamide]: in test [1], the DC50 was under 100 nM and the Dmax is over 90%. Further, in test [2], the DC50 was under 100 nM and the Dmax was over 90%.
In the case of `Cc1ncsc1-c1ccc([C@H](CN2CCOCC2)NC(=O)[C@@H]2C[C@@H](O)CN2C(=O)[C@H](C(C)C)n2cc([C@H]3CC[C@H](CN4CCN(c5ccc6c(c5)-n5c(nc(=O)c7c(Cl)cccc75)C6(C)C)CC4)CC3)nn2)cc1` [Compound B129, (2S,4R)-1-((S)-2-(4-((1r,4S)-4-((4-(4-chloro-7,7-dimethyl-5-oxo-5,7-dihydroindolo[1,2-a]quinazolin-10-yl)piperazin-1-yl)methyl)cyclohexyl)-1H-1,2,3-triazol-1-yl)-3-methylbutanoyl)-4-hydroxy-N-((R)-1-(4-(4-methylthiazol-5-yl)phenyl)-2-morpholinoethyl)pyrrolidine-2-carboxamide], in test [1], the DC50 is under 100 nM and the Dmax is over 90%. In addition, in test [2], the DC50 is under 100 nM and the Dmax was in the range of 70 to 90%.
`C=C[C@H](NC(=O)[C@@H]1C[C@@H](O)CN1C(=O)[C@@H](NC(=O)[C@H]1CC[C@H](CN2CCC(c3ccc4c(c3)C(C)(C)c3nc(=O)c5c(Cl)cccc5n3-4)CC2)CC1)C(C)(C)C)c1ccc(-c2scnc2C)cc1` [Compound B79, (2S,4R)-1-((S)-2-((11,4S)-4-((4-(4-chloro-7,7-dimethyl-5-oxo-5,7-dihydroindolo[1,2-a]quinazolin-9-yl)piperidin-1-yl)methyl)cyclohexane-1-carboxamido)-3,3-dimethylbutanoyl)-4-hydroxy-N-((S)-1-(4-(4-methylthiazol-5-yl)phenyl)allyl)pyrrolidine-2-carboxamide]: in test [1], the DC50 was under 100 nM and the Dmax lay in the range of 70 to 90%. Besides, in test [2], the DC50 fell in the range of 100 to 500 nM and the Dmax was under 50%.
The matching figures for `Cc1ncsc1-c1ccc([C@H](CN2CCOCC2)NC(=O)[C@@H]2C[C@@H](O)CN2C(=O)[C@H](c2cc(N3CCC(c4ccc5c(c4)C(C)(C)c4nc(=O)c6c(Cl)cccc6n4-5)CC3)no2)C(C)C)cc1` [Compound B109, (2S,4R)-1-(2-(3-(4-(4-chloro-7,7-dimethyl-5-oxo-5,7-dihydroindolo[1,2-a]quinazolin-9-yl)piperidin-1-yl)isoxazol-5-yl)-3-methylbutanoyl)-4-hydroxy-N—((R)-1-(4-(4-methylthiazol-5-yl)phenyl)-2-morpholinoethyl)pyrrolidine-2-carboxamide]: under 100 nM, over 90%, 100 to 500 nM and 50 to 69%.
The matching figures for `Cc1ncsc1-c1ccc([C@H](C)NC(=O)[C@@H]2C[C@@H](O)CN2C(=O)[C@@H](NC(=O)C23CCC(CN4CCC(c5ccc6c(c5)-n5c(nc(=O)c7c(Cl)cccc75)C6(C)C)CC4)(CC2)C3)C(C)(C)C)cc1` [Compound B77, (2S,4R)-1-((S)-2-(4-((4-(4-chloro-7,7-dimethyl-5-oxo-5,7-dihydroindolo[1,2-a]quinazolin-10-yl)piperidin-1-yl)methyl)bicyclo[2.2.1]heptane-1-carboxamido)-3,3-dimethylbutanoyl)-4-hydroxy-N-((S)-1-(4-(4-methylthiazol-5-yl)phenyl)ethyl)pyrrolidine-2-carboxamide]: under 100 nM, over 90%, 100 to 500 nM and 50 to 69%.
In the same order, the values of `Cc1ncsc1-c1ccc([C@H](C)NC(=O)[C@@H]2C[C@@H](O)CN2C(=O)[C@@H](NC(=O)CN2CCC(c3ccc4c(c3)C(C)(C)c3nc(=O)c5c(Cl)cccc5n3-4)CC2)C(C)(C)C)cc1` [Compound B6, (2S,4R)-1-((S)-2-(2-(4-(4-chloro-7,7-dimethyl-5-oxo-5,7-dihydroindolo[1,2-a]quinazolin-9-yl)piperidin-1-yl)acetamido)-3,3-dimethylbutanoyl)-4-hydroxy-N—((S)-1-(4-(4-methylthiazol-5-yl)phenyl)ethyl)pyrrolidine-2-carboxamide] are under 100 nM, over 90%, under 100 nM and over 90%.
For `Cc1ncsc1-c1ccc([C@H](C)NC(=O)[C@@H]2C[C@@H](O)CN2C(=O)[C@@H](c2cc(OCC3(CN4CCC(c5ccc6c(c5)-n5c(nc(=O)c7c(Cl)cccc75)C6(C)C)CC4)CC3)no2)C(C)C)cc1` [Compound B91, (2S,4R)-1-((R)-2-(3-((1-((4-(4-chloro-7,7-dimethyl-5-oxo-5,7-dihydroindolo[1,2-a]quinazolin-10-yl)piperidin-1-yl)methyl)cyclopropyl)methoxy)isoxazol-5-yl)-3-methylbutanoyl)-4-hydroxy-N-((S)-1-(4-(4-methylthiazol-5-yl)phenyl)ethyl)pyrrolidine-2-carboxamide], in test [1], the DC50 was under 100 nM and the Dmax is over 90%. For the same compound, in test [2], the DC50 was under 100 nM and the Dmax is over 90%.

The values are drawn from patent US20260092071A1, “COMPOUNDS AND COMPOSITIONS AS SMARCA2/4 DEGRADERS AND USES THEREOF” (REGENTS OF THE UNIVERSITY OF MICHIGAN, priority 2022, published 2026).
